Measurements as given in ChEMBL document CHEMBL1275469, “VIM-15 and VIM-16, two new VIM-2-like metallo-beta-lactamases in Pseudomonas aeruginosa isolates from Bulgaria and Germany” (2008).
Converted amounts (≈) assume the structure as drawn.

What was measured:
[1] = test system: Escherichia coli; assay: Antimicrobial activity against Escherichia coli DH5alpha harboring beta-lactamase VIM-16 by agar dilution method; type: functional; settings: DH5[alpha]
[2] = test system: Pseudomonas aeruginosa; assay: Antimicrobial activity against Pseudomonas aeruginosa 166301 expressing beta-lactamase VIM-16 obtained from urine of patient by agar dilution method; type: functional
[3] = test system: Escherichia coli; assay: Antimicrobial activity against Escherichia coli DH5alpha harboring beta-lactamase VIM-2 by agar dilution method; type: functional; settings: DH5[alpha]
[4] = test system: Pseudomonas aeruginosa; assay: microbe, parasite or virus in culture; settings: Pseudomonas aeruginosa, 9551, Urine
[5] = test system: Escherichia coli; assay: Antimicrobial activity against Escherichia coli DH5alpha harboring beta-lactamase VIM-15 by agar dilution method; type: functional; settings: DH5[alpha]
[6] = test system: Escherichia coli; assay: Antimicrobial activity against Escherichia coli DH5alpha by agar dilution method; type: functional; settings: DH5[alpha]
[7] = test system: Pseudomonas aeruginosa; assay: Ratio of Kcat to Km for Pseudomonas aeruginosa 166301 beta-lactamase VIM-16 relative to cephaloridine
[8] = biological target: Beta-lactamase VIM-2 (Pseudomonas aeruginosa) (UniProt Q9K2N0); assay: Activity of Pseudomonas aeruginosa COL-1 beta-lactamase VIM-2 relative to cephaloridine
[9] = biological target: Beta-lactamase VIM-2 (Pseudomonas aeruginosa) (UniProt Q9K2N0); assay: Ratio of Kcat to Km for Pseudomonas aeruginosa COL-1 beta-lactamase VIM-2 relative to cephaloridine
[10] = test system: Pseudomonas aeruginosa; assay: Activity of Pseudomonas aeruginosa 9551 beta-lactamase VIM-15 relative to cephaloridine
[11] = test system: Pseudomonas aeruginosa; assay: Ratio of Kcat to Km for Pseudomonas aeruginosa 9551 beta-lactamase VIM-15 relative to cephaloridine
[12] = test system: Pseudomonas aeruginosa; assay: Activity of Pseudomonas aeruginosa 9551 beta-lactamase VIM-15
[13] = test system: Pseudomonas aeruginosa; assay: Activity of Pseudomonas aeruginosa 166301 beta-lactamase VIM-16
[14] = test system: Pseudomonas aeruginosa; assay: Ratio of Kcat to Km for Pseudomonas aeruginosa 166301 beta-lactamase VIM-16
[15] = test system: Pseudomonas aeruginosa; assay: Activity of Pseudomonas aeruginosa 166301 beta-lactamase VIM-16 relative to cephaloridine
[16] = test system: Pseudomonas aeruginosa; assay: Ratio of Kcat to Km for Pseudomonas aeruginosa 9551 beta-lactamase VIM-15
[17] = test system: Pseudomonas aeruginosa; assay: Antimicrobial activity against Pseudomonas aeruginosa 9551 expressing beta-lactamase VIM-15 obtained from urine of patient by agar dilution method in presence of beta-lactamase inhibitor Tazobactam; type: functional; settings: Pseudomonas aeruginosa, 9551, Urine
[18] = test system: Escherichia coli; assay: Antimicrobial activity against Escherichia coli DH5alpha harboring beta-lactamase VIM-2 by agar dilution method in presence of beta-lactamase inhibitor Tazobactam; type: functional; settings: DH5[alpha]
[19] = test system: Pseudomonas aeruginosa; assay: Antimicrobial activity against Pseudomonas aeruginosa 166301 expressing beta-lactamase VIM-16 obtained from urine of patient by agar dilution method in presence of beta-lactamase inhibitor Tazobactam; type: functional; settings: Pseudomonas aeruginosa, 166301, Urine
[20] = test system: Escherichia coli; assay: Antimicrobial activity against Escherichia coli DH5alpha harboring beta-lactamase VIM-16 by agar dilution method in presence of beta-lactamase inhibitor Tazobactam; type: functional; settings: DH5[alpha]
[21] = test system: Escherichia coli; assay: Antimicrobial activity against Escherichia coli DH5alpha by agar dilution method in presence of beta-lactamase inhibitor Tazobactam; type: functional; settings: DH5[alpha]
[22] = test system: Escherichia coli; assay: Antimicrobial activity against Escherichia coli DH5alpha harboring beta-lactamase VIM-15 by agar dilution method in presence of beta-lactamase inhibitor Tazobactam; type: functional; settings: DH5[alpha]
[23] = Pseudomonas aeruginosa, 166301, Urine

Compound	MIC [1]	MIC [2, 23]	MIC [3]	MIC [4]	MIC [5]	MIC [6]	Activity [7]	Activity [10]	Activity [11]	Km [12]	kcat [12]	Km [13]	kcat [13]	kcat/Km [14]	Activity [15]	kcat/Km [16]	also measured
CC1(C)S[C@@H]2[C@H](NC(=O)[C@H](N)c3ccc(O)cc3)C(=O)N2[C@H]1C(=O)O [AMOXICILLIN]	256 µg/mL (≈ 701 µM)	> 512 µg/mL	256 µg/mL (≈ 701 µM)	512 µg/mL (≈ 1400 µM)	256 µg/mL (≈ 701 µM)	4 µg/mL (≈ 10.9 µM)											
C[C@@H](O)[C@H]1C(=O)N2C(C(=O)O)=C(S[C@@H]3CN[C@H](C(=O)N(C)C)C3)[C@H](C)[C@H]12 [MEROPENEM]	0.03 µg/mL (≈ 0.0782 µM)	> 128 µg/mL	0.03 µg/mL (≈ 0.0782 µM)	128 µg/mL (≈ 334 µM)	0.03 µg/mL (≈ 0.0782 µM)	0.016 µg/mL (≈ 0.0417 µM)	110%										Activity [8]: 1.8%; Activity [9]: 62%
CC(C)(O/N=C(\C(=O)N[C@@H]1C(=O)N2C(C(=O)[O-])=C(C[n+]3ccccc3)CS[C@H]12)c1csc(N)n1)C(=O)O [CEFTAZIDIME]	0.5 µg/mL (≈ 0.915 µM)	64 µg/mL (≈ 117 µM)	1 µg/mL (≈ 1.83 µM)	64 µg/mL (≈ 117 µM)	0.5 µg/mL (≈ 0.915 µM)	0.13 µg/mL (≈ 0.238 µM)	2.2%	0.53%	1.2%	37 µM	1 s⁻¹	150 µM	0.22 s⁻¹	1400 M⁻¹ s⁻¹	0.25%	27000 M⁻¹ s⁻¹	
CC1(C)S[C@@H]2[C@H](NC(=O)Cc3ccccc3)C(=O)N2[C@H]1C(=O)O							800%										
GENTAMICIN	0.13 µg/mL		0.13 µg/mL		0.13 µg/mL	0.13 µg/mL											MIC [2]: > 128 µg/mL
CCN1CCN(C(=O)N[C@@H](C(=O)N[C@@H]2C(=O)N3[C@@H]2SC(C)(C)[C@@H]3C(=O)O)c2ccccc2)C(=O)C1=O [PIPERACILLIN]																	MIC [17]: 128 µg/mL; MIC [18]: 4 µg/mL; MIC [19]: 128 µg/mL; MIC [20]: 8 µg/mL; MIC [21]: 1 µg/mL; MIC [22]: 8 µg/mL
O=C(Cc1cccs1)N[C@@H]1C(=O)N2C(C(=O)[O-])=C(C[n+]3ccccc3)CS[C@H]12							100%	100%	100%	83 µM	190 s⁻¹	1400 µM	89 s⁻¹	64000 M⁻¹ s⁻¹	100%	2.3e+06 M⁻¹ s⁻¹	Activity [8]: 100%; Activity [9]: 100%
C[C@@H](O)[C@H]1C(=O)N2C(C(=O)O)=C(SCCNC=N)C[C@H]12 [IMIPENEM ANHYDROUS]		> 128 µg/mL		> 128 µg/mL	0.5 µg/mL (≈ 1.67 µM)		800%	32%	370%	7.3 µM	61 s⁻¹	89 µM	45 s⁻¹	510000 M⁻¹ s⁻¹	51%	8.4e+06 M⁻¹ s⁻¹	Activity [8]: 17%; Activity [9]: 380%
C[C@H]1[C@H](NC(=O)/C(=N\OC(C)(C)C(=O)O)c2csc(N)n2)C(=O)N1S(=O)(=O)O [AZTREONAM]	0.016 µg/mL (≈ 0.0367 µM)	32 µg/mL (≈ 73.5 µM)	0.016 µg/mL (≈ 0.0367 µM)	16 µg/mL (≈ 36.7 µM)	0.016 µg/mL (≈ 0.0367 µM)	0.016 µg/mL (≈ 0.0367 µM)		< 0.016%			< 0.031 s⁻¹		< 0.11 s⁻¹		< 0.12%		
CO/N=C(\C(=O)N[C@@H]1C(=O)N2C(C(=O)[O-])=C(C[N+]3(C)CCCC3)CS[C@H]12)c1csc(N)n1	0.03 µg/mL (≈ 0.0624 µM)	32 µg/mL (≈ 66.6 µM)	0.03 µg/mL (≈ 0.0624 µM)	32 µg/mL (≈ 66.6 µM)	0.03 µg/mL (≈ 0.0624 µM)	0.016 µg/mL (≈ 0.0333 µM)	2.3%	5%		130 µM	9.5 s⁻¹	210 µM	0.31 s⁻¹	1500 M⁻¹ s⁻¹	0.35%	76000 M⁻¹ s⁻¹	
CO/N=C(\C(=O)N[C@@H]1C(=O)N2C(C(=O)O)=C(COC(C)=O)CS[C@H]12)c1csc(N)n1 [CEFOTAXIME]	2 µg/mL (≈ 4.39 µM)	> 256 µg/mL	1 µg/mL (≈ 2.2 µM)	> 256 µg/mL	4 µg/mL (≈ 8.78 µM)	0.03 µg/mL (≈ 0.0659 µM)	530%	47%	300%	13 µM	90 s⁻¹	240 µM	81 s⁻¹	340000 M⁻¹ s⁻¹	91%	6.9e+06 M⁻¹ s⁻¹	
NC[C@H]1O[C@H](O[C@H]2[C@H](O)[C@@H](O[C@H]3O[C@H](CO)[C@@H](O)[C@H](N)[C@H]3O)[C@H](N)C[C@@H]2N)[C@H](N)C[C@@H]1O [TOBRAMYCIN]	0.25 µg/mL (≈ 0.535 µM)	> 128 µg/mL	0.25 µg/mL (≈ 0.535 µM)	8 µg/mL (≈ 17.1 µM)	0.25 µg/mL (≈ 0.535 µM)	0.25 µg/mL (≈ 0.535 µM)											
